In ChEMBL document CHEMBL6153128, “Insights into the Activation Mechanism of HCA1, HCA2, and HCA3” (J Med Chem, 2025):
Active and inactive are the calls of the source. The calls are words filed in the database; no cut-off is given here.

Assays:
HEK293 [1] = assay: Agonist activity at HCA2 (1 to 129 residues)/HCA3 (130-)(unknown origin) expressed in HEK293 cells incubated for 90 mins by IP1 accumulation assay; format: cell-based; conditions: Homo sapiens
HEK293 [2] = assay: Agonist activity at HCA3 (1 to 129 residues)/HCA2 (130-)(unknown origin) expressed in HEK293 cells incubated for 90 mins by IP1 accumulation assay; format: cell-based; conditions: Homo sapiens
HEK293 [3] = assay: Agonist activity at HCA3 (1 to 129 residues)/HCA2 (130-) Y86N/S91W mutant (unknown origin) expressed in HEK293 cells incubated for 90 mins by IP1 accumulation assay; format: cell-based; conditions: Homo sapiens, filed as agonist
[4] = target: T1, Hydroxycarboxylic acid receptor 1 (Homo sapiens, UniProt Q9BXC0); assay: Agonist activity at HCA1 (unknown origin); format: functional, cell-based, HEK293
[5] = system: Hydroxycarboxylic acid receptor 1 (Homo sapiens), Q9BXC0 [C6A]; assay: Agonist activity at CRE-luc-fused HCA1 C6A mutant (unknown origin) expressed in HEK293 cells co-expressing XtremeGENE HP DNA assessed as inhibition of cAMP production preincubated for 30 mins followed by forskolin addition measured after 6 hrs by Bright-Glo Luciferase Assay; format: cell-based; conditions: time 6.5 hrs
[6] = system: Hydroxycarboxylic acid receptor 1 (Homo sapiens), Q9BXC0 [R99A]; assay: Agonist activity at CRE-luc-fused HCA1 R99A mutant (unknown origin) expressed in HEK293 cells co-expressing XtremeGENE HP DNA assessed as inhibition of cAMP production preincubated for 30 mins followed by forskolin addition measured after 6 hrs by Bright-Glo Luciferase Assay; format: cell-based; conditions: time 6.5 hrs
[7] = system: Hydroxycarboxylic acid receptor 1 (Homo sapiens), Q9BXC0 [Y268A]; assay: Agonist activity at CRE-luc-fused HCA1 Y268A mutant (unknown origin) expressed in HEK293 cells co-expressing XtremeGENE HP DNA assessed as inhibition of cAMP production preincubated for 30 mins followed by forskolin addition measured after 6 hrs by Bright-Glo Luciferase Assay; format: cell-based; conditions: time 6.5 hrs
[8] = system: Hydroxycarboxylic acid receptor 1 (Homo sapiens), Q9BXC0 [E166A]; assay: Agonist activity at CRE-luc-fused HCA1 E166A mutant (unknown origin) expressed in HEK293 cells co-expressing XtremeGENE HP DNA assessed as inhibition of cAMP production preincubated for 30 mins followed by forskolin addition measured after 6 hrs by Bright-Glo Luciferase Assay; format: cell-based; conditions: time 6.5 hrs
[9] = system: Hydroxycarboxylic acid receptor 1 (Homo sapiens), Q9BXC0 [C7A]; assay: Agonist activity at CRE-luc-fused HCA1 C7A mutant (unknown origin) expressed in HEK293 cells co-expressing XtremeGENE HP DNA assessed as inhibition of cAMP production preincubated for 30 mins followed by forskolin addition measured after 6 hrs by Bright-Glo Luciferase Assay; format: cell-based; conditions: time 6.5 hrs
[10] = system: Hydroxycarboxylic acid receptor 1 (Homo sapiens), Q9BXC0 [R71A]; assay: Agonist activity at CRE-luc-fused HCA1 R71A mutant (unknown origin) expressed in HEK293 cells co-expressing XtremeGENE HP DNA assessed as inhibition of cAMP production preincubated for 30 mins followed by forskolin addition measured after 6 hrs by Bright-Glo Luciferase Assay; format: cell-based; conditions: time 6.5 hrs
[11] = system: Hydroxycarboxylic acid receptor 1 (Homo sapiens), Q9BXC0 [C88A]; assay: Agonist activity at CRE-luc-fused HCA1 C88A mutant (unknown origin) expressed in HEK293 cells co-expressing XtremeGENE HP DNA assessed as inhibition of cAMP production preincubated for 30 mins followed by forskolin addition measured after 6 hrs by Bright-Glo Luciferase Assay; format: cell-based; conditions: time 6.5 hrs
[12] = target: T1, Hydroxycarboxylic acid receptor 1; assay: Agonist activity at CRE-luc-fused HCA1 (unknown origin) expressed in HEK293 cells co-expressing XtremeGENE HP DNA assessed as inhibition of cAMP production preincubated for 30 mins followed by forskolin addition measured after 6 hrs by Bright-Glo Luciferase Assay; format: functional, cell-based; conditions: filed as agonist, time 6.5 hrs
[13] = system: Hydroxycarboxylic acid receptor 1 (Homo sapiens), Q9BXC0 [H261F]; assay: Agonist activity at CRE-luc-fused HCA1 H261F mutant (unknown origin) expressed in HEK293 cells co-expressing XtremeGENE HP DNA assessed as inhibition of cAMP production preincubated for 30 mins followed by forskolin addition measured after 6 hrs by Bright-Glo Luciferase Assay; format: cell-based; conditions: time 6.5 hrs
[14] = system: Hydroxycarboxylic acid receptor 1 (Homo sapiens), Q9BXC0 [R240A]; assay: Agonist activity at CRE-luc-fused HCA1 R240A mutant (unknown origin) expressed in HEK293 cells co-expressing XtremeGENE HP DNA assessed as inhibition of cAMP production preincubated for 30 mins followed by forskolin addition measured after 6 hrs by Bright-Glo Luciferase Assay; format: cell-based; conditions: time 6.5 hrs
[15] = system: Hydroxycarboxylic acid receptor 1 (Homo sapiens), Q9BXC0 [Y74A]; assay: Agonist activity at CRE-luc-fused HCA1 Y74A mutant (unknown origin) expressed in HEK293 cells co-expressing XtremeGENE HP DNA assessed as inhibition of cAMP production preincubated for 30 mins followed by forskolin addition measured after 6 hrs by Bright-Glo Luciferase Assay; format: cell-based; conditions: time 6.5 hrs
[16] = system: Hydroxycarboxylic acid receptor 1 (Homo sapiens), Q9BXC0 [Y75A]; assay: Agonist activity at CRE-luc-fused HCA1 Y75A mutant (unknown origin) expressed in HEK293 cells co-expressing XtremeGENE HP DNA assessed as inhibition of cAMP production preincubated for 30 mins followed by forskolin addition measured after 6 hrs by Bright-Glo Luciferase Assay; format: cell-based; conditions: time 6.5 hrs
[17] = system: Hydroxycarboxylic acid receptor 1 (Homo sapiens), Q9BXC0 [E166I]; assay: Agonist activity at CRE-luc-fused HCA1 E166I mutant (unknown origin) expressed in HEK293 cells co-expressing XtremeGENE HP DNA assessed as inhibition of cAMP production preincubated for 30 mins followed by forskolin addition measured after 6 hrs by Bright-Glo Luciferase Assay; format: cell-based; conditions: time 6.5 hrs
[18] = system: Hydroxycarboxylic acid receptor 1 (Homo sapiens), Q9BXC0 [H261A]; assay: Agonist activity at CRE-luc-fused HCA1 H261A mutant (unknown origin) expressed in HEK293 cells co-expressing XtremeGENE HP DNA assessed as inhibition of cAMP production preincubated for 30 mins followed by forskolin addition measured after 6 hrs by Bright-Glo Luciferase Assay; format: cell-based; conditions: time 6.5 hrs
HEK293 [19] = assay: Agonist activity at HCA3 (1 to 129 residues)/HCA2 (130-) S178I mutant (unknown origin) expressed in HEK293 cells incubated for 90 mins by IP1 accumulation assay; format: cell-based; conditions: Homo sapiens, filed as agonist
HEK293 [20] = assay: Agonist activity at HCA2 (1 to 129 residues)/HCA3 (130-) N86Y/W91S mutant (unknown origin) expressed in HEK293 cells incubated for 90 mins by IP1 accumulation assay; format: cell-based; conditions: Homo sapiens

T1 sequence (Q9BXC0 whole entry, the tested form may be a part): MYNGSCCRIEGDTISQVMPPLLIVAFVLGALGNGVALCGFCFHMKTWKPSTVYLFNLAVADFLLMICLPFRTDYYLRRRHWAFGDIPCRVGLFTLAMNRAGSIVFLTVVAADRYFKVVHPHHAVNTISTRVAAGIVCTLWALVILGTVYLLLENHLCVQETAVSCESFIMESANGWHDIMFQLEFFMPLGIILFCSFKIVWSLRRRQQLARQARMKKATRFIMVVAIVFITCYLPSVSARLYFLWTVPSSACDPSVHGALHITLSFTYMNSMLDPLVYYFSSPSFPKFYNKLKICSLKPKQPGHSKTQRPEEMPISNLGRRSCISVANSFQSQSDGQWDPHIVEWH
Hydroxycarboxylic acid receptor 1 (Homo sapiens), Q9BXC0 [C88A], sequence (Q9BXC0 whole entry C88A, the tested form may be a part): as the sequence (Q9BXC0 whole entry, the tested form may be a part) above, with C88A counted along it
Hydroxycarboxylic acid receptor 1 (Homo sapiens), Q9BXC0 [E166A], sequence (Q9BXC0 whole entry E166A, the tested form may be a part): as the sequence (Q9BXC0 whole entry, the tested form may be a part) above, with E166A counted along it
Hydroxycarboxylic acid receptor 1 (Homo sapiens), Q9BXC0 [H261F], sequence (Q9BXC0 whole entry H261F, the tested form may be a part): as the sequence (Q9BXC0 whole entry, the tested form may be a part) above, with H261F counted along it
Hydroxycarboxylic acid receptor 1 (Homo sapiens), Q9BXC0 [Y268A], sequence (Q9BXC0 whole entry Y268A, the tested form may be a part): as the sequence (Q9BXC0 whole entry, the tested form may be a part) above, with Y268A counted along it
Hydroxycarboxylic acid receptor 1 (Homo sapiens), Q9BXC0 [R71A], sequence (Q9BXC0 whole entry R71A, the tested form may be a part): as the sequence (Q9BXC0 whole entry, the tested form may be a part) above, with R71A counted along it
Hydroxycarboxylic acid receptor 1 (Homo sapiens), Q9BXC0 [H261A], sequence (Q9BXC0 whole entry H261A, the tested form may be a part): as the sequence (Q9BXC0 whole entry, the tested form may be a part) above, with H261A counted along it
Hydroxycarboxylic acid receptor 1 (Homo sapiens), Q9BXC0 [Y75A], sequence (Q9BXC0 whole entry Y75A, the tested form may be a part): as the sequence (Q9BXC0 whole entry, the tested form may be a part) above, with Y75A counted along it
Hydroxycarboxylic acid receptor 1 (Homo sapiens), Q9BXC0 [E166I], sequence (Q9BXC0 whole entry E166I, the tested form may be a part): as the sequence (Q9BXC0 whole entry, the tested form may be a part) above, with E166I counted along it
Hydroxycarboxylic acid receptor 1 (Homo sapiens), Q9BXC0 [R240A], sequence (Q9BXC0 whole entry R240A, the tested form may be a part): as the sequence (Q9BXC0 whole entry, the tested form may be a part) above, with R240A counted along it
Hydroxycarboxylic acid receptor 1 (Homo sapiens), Q9BXC0 [C6A], sequence (Q9BXC0 whole entry C6A, the tested form may be a part): as the sequence (Q9BXC0 whole entry, the tested form may be a part) above, with C6A counted along it
Hydroxycarboxylic acid receptor 1 (Homo sapiens), Q9BXC0 [Y74A], sequence (Q9BXC0 whole entry Y74A, the tested form may be a part): as the sequence (Q9BXC0 whole entry, the tested form may be a part) above, with Y74A counted along it
Hydroxycarboxylic acid receptor 1 (Homo sapiens), Q9BXC0 [C7A], sequence (Q9BXC0 whole entry C7A, the tested form may be a part): as the sequence (Q9BXC0 whole entry, the tested form may be a part) above, with C7A counted along it
Hydroxycarboxylic acid receptor 1 (Homo sapiens), Q9BXC0 [R99A], sequence (Q9BXC0 whole entry R79A, the tested form may be a part): as the sequence (Q9BXC0 whole entry, the tested form may be a part) above, with R79A counted along it

Question: What does the source list for `CC(C)(Cc1nc(-c2ccc(O)cn2)no1)C(=O)NC1=C(C(=O)O)CCCC1`?
Answer: Activity (HEK293 [1]): inactive; Activity (HEK293 [2]): inactive; Activity (HEK293 [3]): Active

Question: `O=C(O)c1cc(O)cc(Cl)c1` was tested. Which EC50 [4] did it give?
Answer: ~16 µM

Question: What does the source list for `O=C(O)c1cc(O)cc(O)c1` [3,5-DIHYDROXYBENZOIC ACID]?
Answer: Activity [5]: inactive; Activity [6]: inactive; Activity [7]: inactive; Activity [8]: inactive; Activity [9]: inactive; Activity [10]: inactive; Activity [11]: inactive; Activity [12]: Active; Activity [13]: inactive; Activity [14]: inactive; Activity [15]: inactive; EC50 [4]: ~150 µM; Activity [16]: inactive; Activity [17]: inactive; Activity [18]: inactive

Question: `O=C(O)c1cccc(O)c1` [3-HYDROXYBENZOIC ACID] was tested. Which EC50 [4] did it give?
Answer: ~184 µM

Question: `CC1CCC(C(=O)Nc2nc(-c3cccs3)c(CC(=O)N3CCN(C)CC3)s2)CC1` (stereo not given) was tested. Which EC50 [4] did it give?
Answer: ~0.05 µM

Question: How did the EC50 [4] turn out when `CC(O)C(=O)O` (stereo not given) [LACTIC ACID] was run?
Answer: 1000 µM

Question: Which Activity (HEK293 [1]) does the source give for `CCCCCC(O)CC(=O)O` (stereo not given) here?
Answer: inactive

Question: And the Activity (HEK293 [19])?
Answer: Active

Question: What about the Activity (HEK293 [20]) of the same molecule?
Answer: inactive
